Laboratory results from patent US20020177172A1, “RESTORATION OF PLATELET AGGREGATION BY ANTIBODY ADMINISTRATION AFTER GPIIB/IIIA ANTAGONIST TREATMENT” (priority 1996, published 2002).
Converted amounts (≈) assume the structure as drawn. Structures can show the parent of a compound that is named as a salt. Square brackets hold non-standard residues; d marks the D form. Peptide text beside a SMILES is read from it. NMeR = CN[C@@H](CCCNC(=N)N)C(=O)O; 3Amb = NCc1cccc(C(=O)O)c1; dAbu = CC[C@@H](N)C(=O)O

What was measured:
platelet aggregation [1] = experiment: In vivo platelet aggregation, dogs (ex vivo aggregation response); details: dog, capsule of 10 mg BID for 4 days (15 mg on day 3)
Protocol: Three beagle dogs were therefore infused with compound B while monitoring blood pressure, heart rate, PT (prothrombin time), and aPTT (activated partial thromboplastin time). […] In a second study, a dog was treated with a capsule of 10 mg of compound A, BID for 4 days (15 mg on day 3) prior to antibody testing. […] Four hours after the last oral dose of compound A, a dose of pentobarbitol and the monoclional antibody ([…]-9F7) was infused by a i.v. bolus injection. Each bolus contained a 5-fold molar excess over drug plasma levels (about 50 mg of Mab 9F7). A control dog was given identical amounts of antibody without compound A oral dosing.

platelet aggregation [2] = experiment: IC50 values of antiplatelet compounds (FIG. 1 legend); assay type: cell-based
[3] = Half-life of compound B in guinea pig; assay type: in vivo
[4] = Removal from circulation / elimination half-life; assay type: in vivo; details: for route of removal from circulation: in vivo; for change of elimination half-life with decreased creatinine clearance: renal impairment
[5] = test system: human platelet rich plasma; experiment: Aggregation of human platelet rich plasma; assay type: cell-based; details: read-out: inhibition of aggregation by the compound itself; for inhibition at 0.05 µM: 5×10^−8 M
Protocol: Human platelet rich plasma (“PRP”) was prepared by centrifugation of citrated whole blood at 970×g for 3.5 minutes at room temperature. PRP was carefully removed from red cells and placed in 50 mL conical tubes. Platelet aggregation was measured as an increase in light transmission in an aggregometer (Bio/Data model PAP-4, Horsham, Pa.) using ADP (20 μM) or collagen (4 μg/mL) as the agonist.
Antibodies produced according to Example 4 were assayed in aggregation for their ability to neutralize (at 60 nM) the GPIIb/IIIa antagonists compound B (5×10^−8 M), compound D (1×10^−7 M), and Merck compound MK383 (5×10^−8 M), as a means of screening which ones recognized the antagonists in a useful manner. The levels of antiplatelet compounds used provided at least 50 percent inhibition of aggregation by themselves. Results are illustrated in FIG. 3.
Collagen-induced platelet aggregation was measured in the presence of 50 nM compound B or 100 nM compound D over 3 minutes in the presence or absence of Mab 9F7 inclusion at 60 nM.

[6] = Total and free plasma levels of compound B in dog; assay type: in vivo; details: three bolus infusions of Mab 9F7, FIG. 11
Protocol: In a second study, a dog was treated with a capsule of 10 mg of compound A, BID for 4 days (15 mg on day 3) prior to antibody testing. […] Four hours after the last oral dose of compound A, a dose of pentobarbitol and the monoclional antibody (P187-9F7) was infused by a i.v. bolus injection. Each bolus contained a 5-fold molar excess over drug plasma levels (about 50 mg of Mab 9F7). A control dog was given identical amounts of antibody without compound A oral dosing. Blood samples were collected for aggregation assays at 5, 15, 30 and 60 minutes after each bolus administration of antibody, plasma levels of Mab 9F7, and total and free plasma levels of compound B.
This method involves the extraction of compound B and an internal standard (compound F, shown hereinafter) from acidified dog plasma with a C18 solid phase extraction column. Analysis is by reverse phase high performance liquid chromatography with fluorescence detection. Calibration standards were prepared in human heparinized plasma. Quality control pools were prepared in dog plasma and quantified using the human calibration curve. A linear weighted (1/concentration squared) least squares regression analysis was used to quantify samples. This method was validated with a minimum quantifiable level of 1.00 ng/mL. […]
Removed the samples to be analyzed from the freezer and thawed. […] The filtrate was then analyzed by the method given below. […]

[7] = test system: heparinized human whole blood; experiment: Activated clotting time (ACT) in heparinized human whole blood, Hemochron-8000; assay type: cell-based; details: 1.4 Units/mL heparin; FIG. 1
Excerpt: This process can be used to calculate a standardized concentration curve for various known concentrations of anti-platelet compounds. The process can also be used to measure activated clotting times for use in calculating the ACT number for the processes of the invention.
A. Blood was drawn from a human volunteer into a syringe containing heparin. The heparin to whole blood ratio was 1:10 such that the final concentration of heparin in the syringe was 1.4 Units/mL.
B. The Hemochron™-8000 was set up to run ACT using the P-215 tubes from the same manufacturer (International Technidyne).
A. A 1 mL sample of the above heparinized blood was admixed and maintained (incubated) with 2.5-10 μl of antagonist compound or saline for 5 minutes at room temperature.
B. The Hemochron™ was started as 400 μl of the test sample was pipetted into the P-215 tube. The tube contents were gently mixed, placed into the Hemochron™ and turned one revolution until the light on the instrument came on.
C. Step B was repeated for the second channel of the instrument within 30 seconds to give an average activated clotting time. […]
The activated clotting time was first measured (in seconds) for control whole blood from each donor containing only 1.4 Units/mL of heparin. The clotting times were then measured as in Example 1 by varying concentrations of antiplatelet compounds B and D in addition to heparin for each donor. […]

platelet aggregation [8] = details: 20 mg/kg infused into femoral vein of anesthetized dogs; cited from earlier work

Row | IC50 (platelet aggregation [2]) | route of removal from circulation [4] | change of elimination half-life with decreased creatinine clearance [4] | SMILES | inhibition at 0.05 µM [5] | effect of compound concentration on activated clotting time [7] | further results
1 |  |  |  | C#C[C@H](CC(=O)OCC)NC(=O)CCC(=O)Nc1ccc(C(=N)N)cc1.Cl [Compound A, ethyl 3S-[[4-[[4-(aminoiminomethyl)phenyl]-amino]-1,4-dioxobutyl]amino]-4-pentynoate monohydrochloride] |  |  | inhibition of platelet function (platelet aggregation [1]): 54%
2 | 0.027 µg/mL (≈ 0.0817 µM) | almost exclusively by the kidney | appreciable increases | C#C[C@H](CC(=O)O)NC(=O)CCC(=O)Nc1ccc(C(=N)N)cc1 [Compound B, 3S-[[4-[[4-(aminoiminomethyl)phenyl]amino]-1,4-dioxobutyl]amino]-4-pentynoic acid] | ≥ 50% | directly affect the activated clotting time | half-life [3]: short; levels of total compound B (free plus antibody bound) [6]: increased throughout the three infusions
3 | 0.043 µg/mL (≈ 0.129 µM) | almost exclusively by the kidney | appreciable increases | N=C(N)c1ccc(N2CC[C@H](NC(=O)NCCC(=O)O)C2=O)cc1 [Compound D, 3-[[[[1-[4-(aminoiminomethyl)phenyl]-2-oxo-pyrrolidin-3S-yl]amino]carbonyl]amino]propanoic acid] |  | directly affect the activated clotting time | inhibition at 0.1 µM ([5]; 1×10^−7 M): ≥ 50%
4 |  |  |  | CC[C@H]1NC(=O)c2cccc(c2)CNC(=O)[C@H](CC(=O)O)NC(=O)CNC(=O)[C@H](CCCNC(=N)N)N(C)C1=O [DMP728, cyclic [D-2-aminobutyryl-N2-methyl-L-arginyl-glycyl-L-aspartyl-3-aminomethyl-benzoic acid] methanesulfonic acid salt] (cyclo([NMeR]GD[3Amb][dAbu])) |  |  | duration of inhibition of platelet aggregation (platelet aggregation [8]): up to 210 minutes; inhibition of platelet aggregation, measured ex vivo (platelet aggregation [8]): nearly complete inhibition
5 |  |  |  | CCCCS(=O)(=O)N[C@@H](Cc1ccc(OCCCCC2CCNCC2)cc1)C(=O)O [MK383, N-(butylsulfonyl)-0-(4-(4-piperidinyl)butyl)-L-tyrosine, monohydrochloride, reference compound] | ≥ 50% |  | 
